This is an account of results in US6177447A (Universiteit van Amsterdam, priority 1996, dated 2001).

Each structure is given as a SMILES string. Where two headings read alike, the source gives them in different places. A value given as a limit tells only on which side of the number the result lay.

Test [1] has as its target T1, lysosomal a-glucosidase (Homo sapiens, UniProt P10253). The experiment in a line: purified lysosomal a-glucosidase activity towards 4MU-a-glucoside. Format: biochemical.
In test [2] the target is T2, glucocerebrosidase (Homo sapiens, UniProt P04062).
T2 sequence (P04062 40-536): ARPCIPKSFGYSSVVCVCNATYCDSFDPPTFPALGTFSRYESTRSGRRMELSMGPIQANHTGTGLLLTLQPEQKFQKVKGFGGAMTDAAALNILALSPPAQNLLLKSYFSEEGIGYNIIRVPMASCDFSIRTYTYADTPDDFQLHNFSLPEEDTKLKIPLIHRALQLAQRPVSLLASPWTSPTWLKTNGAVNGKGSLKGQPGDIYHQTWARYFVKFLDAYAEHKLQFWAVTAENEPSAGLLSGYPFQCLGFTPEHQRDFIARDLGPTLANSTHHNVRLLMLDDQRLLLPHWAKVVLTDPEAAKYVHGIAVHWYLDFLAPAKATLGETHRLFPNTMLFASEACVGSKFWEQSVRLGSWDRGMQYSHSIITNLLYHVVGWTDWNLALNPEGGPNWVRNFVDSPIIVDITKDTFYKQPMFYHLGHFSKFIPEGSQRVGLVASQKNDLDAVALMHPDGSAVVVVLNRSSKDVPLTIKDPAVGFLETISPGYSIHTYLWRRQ
The experiment in a line: conduritol B-epoxide inhibitable glucocerebrosidase activity in membrane fraction from human spleen. Format: biochemical. The following applies: membrane suspension, 4MU-b-glucoside, pH 5.2; read-out: apparent Ki GLUCOCEREBROSIDASE MEMBRANES

The target in test [3] is T3, glucocerebrosidase (Ceredase) (Homo sapiens, UniProt P04062).
T3 construct: purchased Genzyme Corp. Boston,USA; host or cells: human placenta
T3 sequence (P04062 40-536): T2 sequence (P04062 40-536)
Put plainly: activity of soluble human placental glucocerebrosidase (Ceredase) towards 4MU-b-glucoside. Format: biochemical. The conditions noted are these: soluble enzyme, 0.25% sodium taurocholate, 0.1% Triton X-100, pH 5.2; read-out: apparent Ki GLUCOCEREBROSIDASE CEREDASE

Test [4] deals with T2, glucocerebrosidase. Put plainly: glucocerebrosidase activity in intact melanoma cells (4MU-b-glucoside, conduritol B-epoxide sensitive). It is filed as cell-based. More on the design: the hydrolysis of 4MU-b-glucoside by cultured melanoma cells; endogenous in cells.
Test [5] concerns chitotriosidase. Put plainly: chitotriosidase secretion by cultured macrophages. Format: cell-based, human. The conditions noted are these: Homo sapiens, Macrophage, 96 h, 4 days, relative to no inhibitor (100%).
Test [6] deals with T4, glucosylceramidase (Homo sapiens, UniProt Q9HCG7).
T4 sequence (Q9HCG7 1-927): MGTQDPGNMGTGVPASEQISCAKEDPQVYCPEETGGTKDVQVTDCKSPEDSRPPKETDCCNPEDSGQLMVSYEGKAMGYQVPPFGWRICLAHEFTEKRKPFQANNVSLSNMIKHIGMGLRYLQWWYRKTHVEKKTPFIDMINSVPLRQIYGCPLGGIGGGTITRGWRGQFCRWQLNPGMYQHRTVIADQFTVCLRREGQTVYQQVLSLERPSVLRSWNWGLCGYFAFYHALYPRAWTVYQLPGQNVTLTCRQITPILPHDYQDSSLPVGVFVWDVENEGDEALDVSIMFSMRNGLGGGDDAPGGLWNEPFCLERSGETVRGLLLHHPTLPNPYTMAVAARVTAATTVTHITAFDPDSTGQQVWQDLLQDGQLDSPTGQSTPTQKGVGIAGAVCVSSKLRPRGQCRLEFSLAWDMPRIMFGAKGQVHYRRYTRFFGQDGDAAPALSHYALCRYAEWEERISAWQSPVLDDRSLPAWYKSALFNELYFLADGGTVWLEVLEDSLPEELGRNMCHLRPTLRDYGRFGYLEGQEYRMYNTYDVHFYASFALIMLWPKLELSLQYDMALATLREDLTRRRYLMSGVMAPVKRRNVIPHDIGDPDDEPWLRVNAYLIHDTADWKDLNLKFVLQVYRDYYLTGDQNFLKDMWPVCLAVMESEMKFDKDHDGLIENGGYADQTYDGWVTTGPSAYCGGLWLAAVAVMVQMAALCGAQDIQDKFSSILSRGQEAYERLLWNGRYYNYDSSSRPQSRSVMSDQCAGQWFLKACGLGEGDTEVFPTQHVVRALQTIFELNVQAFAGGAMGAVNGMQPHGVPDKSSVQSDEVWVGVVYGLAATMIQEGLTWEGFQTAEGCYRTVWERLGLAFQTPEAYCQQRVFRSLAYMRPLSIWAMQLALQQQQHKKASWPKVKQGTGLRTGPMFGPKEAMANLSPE
The experiment in a line: glucosylceramidase activity in intact melanoma cells (4MU-b-glucoside, conduritol B-epoxide insensitive). It is filed as cell-based. Details: endogenous in cells.

Test [7] addresses T4, glucosylceramidase. The experiment in a line: glucosylceramidase activity towards 4MU-b-glucoside in conduritol B-epoxide pre-treated membrane suspension from human spleen. The conditions noted are these: for inhibition of glucosylceramidase, in words: comparison among N-alkyl derivatives.
Test [8] concerns the target T5, glycogen synthase (Rattus norvegicus, UniProt P17625).
T5 construct: endogenous in cells; host or cells: rat hepatocytes
T5 sequence (P17625 1-704): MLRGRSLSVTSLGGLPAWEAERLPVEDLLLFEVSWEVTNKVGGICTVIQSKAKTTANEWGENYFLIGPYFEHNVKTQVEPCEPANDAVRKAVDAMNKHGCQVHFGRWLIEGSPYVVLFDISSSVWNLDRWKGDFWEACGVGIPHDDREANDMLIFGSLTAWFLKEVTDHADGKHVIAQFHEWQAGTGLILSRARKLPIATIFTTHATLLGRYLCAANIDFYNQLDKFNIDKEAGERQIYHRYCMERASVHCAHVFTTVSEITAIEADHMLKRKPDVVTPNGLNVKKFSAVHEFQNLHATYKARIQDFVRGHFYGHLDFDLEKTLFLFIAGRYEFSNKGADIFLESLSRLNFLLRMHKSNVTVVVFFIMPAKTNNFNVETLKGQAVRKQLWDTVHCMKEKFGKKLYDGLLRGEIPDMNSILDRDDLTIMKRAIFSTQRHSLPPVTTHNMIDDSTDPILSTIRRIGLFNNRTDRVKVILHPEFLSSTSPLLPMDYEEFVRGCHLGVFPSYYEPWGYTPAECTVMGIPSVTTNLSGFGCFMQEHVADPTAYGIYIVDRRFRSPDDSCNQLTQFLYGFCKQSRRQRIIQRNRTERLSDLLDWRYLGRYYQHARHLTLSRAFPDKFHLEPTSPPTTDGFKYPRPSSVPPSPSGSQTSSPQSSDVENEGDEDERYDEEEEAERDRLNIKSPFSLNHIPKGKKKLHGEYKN
Put plainly: glycogen synthase in rat hepatocytes. It is filed as cell-based. The following applies: at IC50 concentration for glucosylceramidase.

In test [9] the target is T1, lysosomal a-glucosidase. Put plainly: lysosomal a-glucosidase in cultured melanoma cells. The conditions noted are these: at IC50 concentration for glucosylceramidase. It is filed as cell-based. More on the design: endogenous in cells.
Setting [10] is: intact melanoma cells, read-out: IC50 GLUCOCEREBROSIDASE
Where [11] appears, read: 4MU-a-glucoside, pH 4.0, read-out: apparent Ki A-GLUCOSIDASE
Setting [12] is: read-out: IC50 GLUCOSYLCERAMIDASE
The mark [13] stands for this setting: read-out: apparent Ki GLUCOSYLCERAMIDASE, membrane suspension, 4MU-b-glucoside, pH 5.2, competitive inhibition assumed.

As for `O=C(CCCC(=O)N1C[C@H](O)[C@@H](O)[C@H](O)[C@H]1CO)Oc1cc2ccccc2c2ccccc12` [P16], the “inhibition of lysosomal a-glucosidase, in words” value in test [1] was “very poor inhibitors”. In addition, the Ki in [1] (read-out: apparent Ki A-GLUCOSIDASE, 4MU-a-glucoside, pH 4.0) was above 100 µM; in [2], 0.44 µM; in test [3], 11.6 µM. In addition, the IC50 in test [4] (read-out: IC50 GLUCOCEREBROSIDASE, intact melanoma cells) was above 1 µM.

Take `CCCCN1C[C@H](O)[C@@H](O)[C@H](O)[C@H]1CO` [BUTYLDNJ, butyl-deoxynojirimycin]: the Ki in [1] came out at 6.43 µM. Also, the activity at 0.5 µM in [5] (0.5 uM) came to 68%. Moreover, the activity at 5 µM in test [5] (5 uM) was 49%. Further, the activity at 50 µM in [5] (50 uM) turned out to be 28%.

In the case of `CCCCCN1C[C@H](O)[C@@H](O)[C@H](O)[C@H]1CO` [PENTYLDNJ, N-pentyl DNJ, reference compound], the Ki stood at 3.74 µM in test [1], 8.5 µM in [2], 249 µM in [3] and 0.038 µM in test [7]. The figures for the IC50 in [6] (IC50 GLUCOSYLCERAMIDASE) and in test [4] (setting [10]) were 0.15 µM and above 1 µM, respectively. For the same compound, the “inhibition of glucosylceramidase, in words” value in test [7] is reported as “Optimal inhibition”.

On to `O=C(CCCC(=O)N1C[C@H](O)[C@@H](O)[C@H](O)[C@H]1CO)OC12CC3CC(CC(C3)C1)C2` [P11], for which, in test [1], the “inhibition of lysosomal a-glucosidase, in words” value is listed as “very poor inhibitors”. In addition, the Ki is above 100 µM in test [1] (setting [11]), 4.1 µM in test [2], 113 µM in test [3] and 306 µM in test [7] (setting [13]). Besides, the IC50 came out at 200 µM in [6] (setting [12]) and 8 µM in test [4] (setting [10]).

Consider `OCC1C(O)C(O)C(O)CN1CCCCCOCC12CC3CC(CC(C3)C1)C2` (stereo not shown) [P21, N-(5-adamantane-1-yl-methoxy-pentyl) deoxynojirimycin], for which the “inhibition of glycogen synthase” value in [8] is on record as “no inhibition”. The “inhibition of lysosomal a-glucosidase” value in [9] was “no inhibition”. Moreover, the activity at 2.5 pM in [5] (0.0025 nM) came to 105%. Further, in test [5] (0.05 nM), the activity at 50 pM was determined as 72%. Besides, the activity at 0.001 µM in test [5] (1 nM) is 64%.

Regarding `CCCCC(=O)N1C[C@H](O)[C@@H](O)[C@H](O)[C@H]1CO` [PENTANOYLDNJ, N-pentanoyl DNJ, reference compound], the Ki in test [1] (setting [11]) turned out to be 2.39 µM; in test [2], 83 µM; in [3], 670 µM; in test [7], 84 µM. The values for the IC50 in test [6] (setting [12]) and in test [4] (setting [10]) were 30 µM and above 1 µM, respectively.

Regarding `CC(C)CCC[C@@H](C)[C@H]1CC[C@H]2[C@@H]3CC=C4C[C@@H](OC(=O)CCCC(=O)N5C[C@H](O)[C@@H](O)[C@H](O)[C@H]5CO)CC[C@]4(C)[C@H]3CC[C@]12C` [P9], the “inhibition of lysosomal a-glucosidase, in words” value in test [1] was “very poor inhibitors”. Besides, the Ki was above 100 µM in test [1] (setting [11]), above 100 µM in [2], 51.6 µM in test [3] and above 100 µM in test [7] (setting [13]).

On to `CCCN1C[C@H](O)[C@@H](O)[C@H](O)[C@H]1CO` [PROPYLDNJ, N-propyl DNJ, reference compound], for which the Ki in test [1] was determined as 9.24 µM; in [2], 332 µM; in test [3], 546 µM; in test [7], 0.123 µM. Moreover, the IC50 in test [6] (IC50 GLUCOSYLCERAMIDASE) is 0.65 µM; in test [4], above 1 µM.

As for `CC(C)CCC[C@@H](C)[C@H]1CC[C@H]2[C@@H]3CC[C@H]4C[C@@H](OC(=O)CCCC(=O)N5C[C@H](O)[C@@H](O)[C@H](O)[C@H]5CO)CC[C@]4(C)[C@H]3CC[C@]12C` [P13], the “inhibition of lysosomal a-glucosidase, in words” value in test [1] was “very poor inhibitors”. The Ki in [1] (setting [11]) was above 100 µM; in [2], above 100 µM; in test [3] it was 11.2 µM; in test [7] (setting [13]), above 100 µM.

Regarding `CCCCCCN1C[C@H](O)[C@@H](O)[C@H](O)[C@H]1CO` [N-hexyl-deoxynojirimycin, reference compound], in [7], the “inhibition of glucosylceramidase, in words” value is “less potent inhibitor”.

Consider `O=C(CCCC(=O)N1C[C@H](O)[C@@H](O)[C@H](O)[C@H]1CO)OCC12CC3CC(CC(C3)C1)C2` [P4], for which the “inhibition of lysosomal a-glucosidase, in words” value in [1] is listed as “very poor inhibitors”. The Ki in test [1] (setting [11]) was above 100 µM; in test [2] it was 3.2 µM; in [3] it was 19.7 µM; in [7] (setting [13]), 461 µM. Moreover, the IC50 is 200 µM in test [6] (setting [12]) and 5 µM in test [4] (setting [10]).
